# Earlier results in patent US20050020536A1, “Highly pure fondaparinux sodium composition, process for preparing said composition and pharmaceutical compositions containing it as active principle” (priority 2003, published 2005).
# Tested on: factor Xa
# Details: general statement in the introduction, no method given
smiles,measurement,value
"CO[C@H]1O[C@H](COS(=O)(=O)[O-])[C@@H](O[C@@H]2O[C@@H](C(=O)[O-])[C@@H](O[C@H]3O[C@H](COS(=O)(=O)[O-])[C@@H](O[C@@H]4O[C@H](C(=O)[O-])[C@@H](O[C@H]5O[C@H](COS(=O)(=O)[O-])[C@@H](O)[C@H](O)[C@H]5NS(=O)(=O)[O-])[C@H](O)[C@H]4O)[C@H](OS(=O)(=O)[O-])[C@H]3NS(=O)(=O)[O-])[C@H](O)[C@H]2OS(=O)(=O)[O-])[C@H](O)[C@H]1NS(=O)(=O)[O-].[Na+].[Na+].[Na+].[Na+].[Na+].[Na+].[Na+].[Na+].[Na+].[Na+] [Fondaparinux sodium, methyl O-2-deoxy-6-O-sulfo-2-(sulfoamino)-α-D-glucopyranosyl-(1→4)-O-β-D-glucopyranuronosyl-(1→4)-O-2-deoxy-3,6-di-O-sulfo-2-(sulfoamino)-α-D-glucopyranosyl-(1→4)-2-O-sulfo-α-D-glucopyranosyl-(1→4)-O-2-O-sulfo-L-idopyranurosyl-(1→4)-2-deoxy-6-O-sulfo-2-(sulfoamino)-α-D-glucopyranoside, decakissodium salt]",anti-factor Xa (anti Xa) activity,very powerful
